According to ChEMBL document CHEMBL1123709, “Affinity labels for beta-adrenoceptors: preparation and properties of alkylating beta-blockers derived from indole” (J Med Chem, 1987):

Tests used:
[1] = target: T1, Adrenergic receptor beta (Rattus norvegicus, UniProt P18090+P10608+P26255); experiment: Binding affinity against the [3H]dihydroalprenolol binding to beta adrenergic receptor of rat heart reticulocytes pretreated with alkylating beta-blockers
[2] = target: T1, Adrenergic receptor beta; experiment: Binding affinity against beta adrenergic receptor from rat lung tissues was determined; assay type: protein assay
[3] = target: T1, Adrenergic receptor beta; experiment: Binding affinity against the [3H]dihydroalprenolol binding to beta adrenergic receptor of rat lung reticulocytes pretreated with alkylating beta-blockers
[4] = target: T1, Adrenergic receptor beta; experiment: Binding affinity against beta adrenergic receptor from rat heart tissues was determined; assay type: protein assay
[5] = target: T2, Adrenergic receptor beta (Rattus norvegicus) (UniProt P18090+P10608+P26255); experiment: Percent potency for irreversible blockade of the [3H]dihydroalprenolol binding to beta adrenergic receptor of rat heart reticulocytes pretreated with alkylating beta blockers at concentration of 1 x 10e-6 M
[6] = target: T2, Adrenergic receptor beta (Rattus norvegicus); experiment: Concentration of binding sites of protein for [3H]dihydroalprenolol binding sites on beta adrenergic receptor of rat heart reticulocytes was determined
[7] = target: T2, Adrenergic receptor beta (Rattus norvegicus); experiment: Percent potency for irreversible blockade of the [3H]dihydroalprenolol binding to beta adrenergic receptor of rat heart reticulocytes pretreated with alkylating beta blockers at concentration of 1 x 10e-7 M
[8] = target: T1, Adrenergic receptor beta; experiment: Binding affinity against the [3H]dihydroalprenolol binding sites on beta adrenergic receptor of rat heart reticulocytes pretreated with alkylating beta-blockers

| Kd [3] [nM] | Blockade [5] [%] | Bmax (fM (mg of protein)-1) [6] | Blockade [7] [%] | Kd [8] [nM] | SMILES | Kd [1] [nM] | Ki [2] [nM] | Ki [4] [nM] |
| --- | --- | --- | --- | --- | --- | --- | --- | --- |
| 1 | 95 | 11 | 89 |  | CC1(NCC(O)COc2cccc3[nH]c(C#N)cc23)CCC(C(C)(C)NC(=O)CBr)CC1 (stereo unspecified) | 1.6 | 1.49 | 0.61 |
|  |  |  |  |  | C=CCc1ccccc1OCC(O)CNC(C)(C)C1CCC(C)(NC(=O)CBr)CC1 (stereo unspecified) |  | 19.8 | 31.2 |
| 1.4 |  |  |  | 2 | CC1(NC(=O)CBr)CCC(C(C)(C)NCC(O)COc2cccc3[nH]ccc23)CC1 (stereo unspecified) |  | 4.46 | 22.6 |
|  |  |  |  |  | C=CCc1ccccc1OCC(O)CNC1(C)CCC(C(C)(C)NC(=O)CBr)CC1 (stereo unspecified) [BROMOACETYL ALPRENOLOL MENTHANE] |  | 126 | 391 |
|  |  |  |  |  | CC1(NCC(O)COc2cccc3[nH]ccc23)CCC(C(C)(C)NC(=O)CBr)CC1 (stereo unspecified) |  | 1.34 | 0.46 |

| SMILES | Kd [3] [nM] | Blockade [5] [%] | Bmax (fM (mg of protein)-1) [6] | Blockade [7] [%] | Kd [8] [nM] | Kd [1] [nM] | Ki [2] [nM] | Ki [4] [nM] |
| --- | --- | --- | --- | --- | --- | --- | --- | --- |
| CC1(NC(=O)CBr)CCC(C(C)(C)NCC(O)COc2cccc3[nH]c(C#N)cc23)CC1 (stereo unspecified) | 1.2 |  |  |  |  | 1.6 | 2.78 | 1.83 |
